experiment: Solubility of non-natural cooling compounds in lactic acid; format: physicochemical; settings: warmed to about 50° C. with gentle agitation for 1 hour per step, highest tested weight % that dissolved
Description: Into a 20ml vial 0.4 g of the respective non-natural cooling compound as indicated in Table 1 below have been added followed by the addition of 1.6 g lactic acid. The vial was warmed to about 50° C. with gentle agitation for 1 hour. If the respective non-natural cooling compound hasn’t dissolved, 2 g lactic acid was added (resulting in a composition comprising 10 weight % of a non-natural cooling compound), and again gentle agitated for an additional hour at about 50° C. If the non-natural cooling compound still hasn’t dissolved, 4 g of lactic acid was added (resulting in a composition comprising 5 weight % of anon-natural cooling compound), and again gentle agitated for an additional hour at about 50° C.
If the non-natural cooling compound still has not dissolved, the procedure above has been repeated, starting with 0.05 g of the non-natural cooling compound and 0.95 g of lactic acid. If still not dissolved, 1 g lactic acid was added (resulting in a composition comprising 2.5 weight % of a non-natural cooling compound). If still not dissolved further solvent was added.
If 0.4 g the non-natural cooling compound dissolved in 1.6 g lactic acid, the procedure above has been repeated, starting with 1 g of the non-natural cooling compound and 1 g lactic acid. If the respective non-natural cooling compound hasn’t dissolved, 0.5 g lactic acid was added (resulting in a composition comprising 40 weight % of a non-natural cooling compound), and again gentle agitated for an additional hour at about 50° C. If the non-natural cooling compound still hasn’t dissolved, 0.83 g of lactic acid was added (resulting in a composition comprising 30 weight % of anon-natural cooling compound), and again gentle agitated for an additional hour at about 50° C.

Soluble solution (solubility of non-natural cooling compound in lactic acid)	Structure (SMILES)
20 wt% wt %	CC1CCC(C(C)C)C(OC(=O)C(C)O)C1 (stereo not shown) [2-isopropyl-5-methylcyclohexyl 2-hydroxypropanoate]
2.5 wt% wt %	CC1CCC(C(C)C)C(C(=O)Nc2ccc(CC(N)=O)cc2)C1 (stereo not shown) [N-(4-(2-amino-2-oxoethyl)phenyl)-2-isopropyl-5-methylcyclohexane-1-carboxamide]
20 wt% wt %	CNC(=O)C(C)(C(C)C)C(C)C [2-isopropyl-N,2,3-trimethylbutanamide]
20 wt% wt %	CCOC(=O)CNC(=O)C1CC(C)CCC1C(C)C (stereo not shown) [ethyl (2-isopropyl-5-methylcyclohexane-1-carbonyl)glycinate]
10 wt% wt %	CCNC(=O)C1CC(C)CCC1C(C)C (stereo not shown) [N-Ethyl-p-menthane-3-carboxamide]
40 wt %	CSC(C)(C)C(=O)N1CCCCC1c1ncc(-c2ccc(C)cc2)[nH]1 (stereo not shown) [2-methyl-2-(methylthio)-1-(2-(5-(p-tolyl)-1H-imidazol-2-yl)piperidin-1-yl)propan-1-one]
30 wt %	C=CC(C)(C)C(=O)N1CCCCC1c1ncc(-c2ccc(C)cc2)[nH]1 (stereo not shown) [2,2-dimethyl-1-(2-(5-(p-tolyl)-1H-imidazol-2-yl)piperidin-1-yl)but-3-en-1-one]
20 wt %	CC1CCC(C(C)C)C(C(=O)NCCc2ccccn2)C1 (stereo not shown) [2-isopropyl-5-methyl-N-(2-(pyridin-2-yl)ethyl)cyclohexane-1-carboxamide]
5 wt% wt %	CC(C)C1CCC(C)(C)CC1C(=O)NCC(O)c1ccccc1 (stereo not shown) [N-(2-hydroxy-2-phenylethyl)-2-isopropyl-5,5-dimethylcyclohexane-1-carboxamide]
5 wt% wt %	CCc1ccc(OCC(=O)N(Cc2cccs2)c2cc[nH]n2)cc1 [2-(4-ethylphenoxy)-N-(1H-pyrazol-3-yl)-N-(thiophen-2-ylmethyl)acetamide]
30 wt %	Cc1ccc(OCC(=O)N(Cc2cccs2)c2ccn[nH]2)cc1 [N-(1H-pyrazol-3-yl)-N-(thiophen-2-ylmethyl)-2-(p-tolyloxy)acetamide]
50 wt %	CSC(C)C(=O)N1CCCCC1c1ncc(-c2ccc(C)cc2)[nH]1 (stereo not shown) [2-(methylthio)-1-(2-(5-(p-tolyl)imidazol-2-yl)piperidin-1-yl)propan-1-one]
50 wt %	CCC(C)C(=O)N1CCCCC1c1ncc(-c2ccc(C)cc2)[nH]1 (stereo not shown) [2-methyl-1-(2-(5-(p-tolyl)-1H-imidazol-2-yl)piperidin-1-yl)butan-1-one]

— patent US20230310293A1, “COOLING SENSATION COMPOSITIONS” (GIVAUDAN SA, priority 2020, published 2023)
